Measurements: patent US8663669B2, “Pesticide treatment of soils or substrates with sulphur compounds” (Arkema France, priority 2002, dated 2014)

Legend:
a large number of fungi = settings: as reported in U.S. Pat. No. 2,917,429; cited from earlier work
[1] = test system: lettuce (variety Sprintia); test: Phytotoxicity on lettuce, in a greenhouse; assay type: in vivo; settings: 150 kg/ha (formulation A)
Text: Absence of phytotoxicity on lettuce of DMDS, applied at 150 kg/ha, in the open, in a greenhouse.
Lettuce variety: Sprintia
Treatment: DMDS is applied in the form of formulation A with the aid of a jet sprayer, and then incorporated over a depth of about 5 cm with a rotary hoe. The soil is then covered with a black polyethylene film.
Planting: 7 days after the treatment, at the rate of 160 000 plants/ha
Harvesting: 2 months and 20 days after planting.

Sclerotium rolfsii = test: Fungicidal efficacy by gassing, sclerotia; assay type: cell-based; parameters: Vitality score Nm (over 19 days): scale not given here; Reduction in viability RV / Reduction in vitality score RNm: unit not given here; settings: for Reduction in viability RV / Reduction in vitality score RNm: compared with the control
Procedure: These four organisms are the following:
Sclerotium rolfsii: a fungus which is also polyphagous and which is found, for example, on melon and courgette crops.
• Sclerotinia sclerotiorum: sclerotia • Sclerotium rolfsii: sclerotia • Rhizoctonia solani: colonized barley grains (mycelium and sclerotia) • Phytophthora cactorum: colonized millet grains (mycelium, sporangia and oospores) Preparation of the Fungi (24 h Before the Gassing Operation) 1. Preparation of the sclerotia of Sclerotinia sclerotiorum and of Sclerotium rolfsii: The fungi are cultured on malt agar medium until the sclerotia are obtained. The sclerotia are collected in a sterile manner and stored dry in empty Petri dishes until they are used. The sclerotia used for the trial are over 3 months old and are perfectly dormant. 2. Preparation of Phytophthora cactorum and of Rhizoctonia solani: The millet and barley used for the multiplication of the two fungi are moistened with ultrapure water by immersing for 24 hours. The grains are then slightly drained and then distributed into flasks and autoclaved (3 autoclavings at 110° C. for 20 minutes, 3 times at 24 hour intervals). Fragments of fungal culture are introduced into the flasks which are then incubated at 22° C.±2° C. (white light 18 h) until homogeneous colonization is obtained. The grains are then removed from the flasks in a sterile manner, dried in the sterile stream of a safety cabinet and then stored in the dry state until they are used. Conditions for Gassing and for Desorption
All the batches of fungi to be treated are placed for a few hours at the trial temperature (20° C.). Between 35 and 300 units of fungi or “propagules” (grains or sclerotia) are subjected to gassing during each trial.
Each fumigation chamber comprising to one or more species of fungi corresponds to a glass round-bottomed flask which is impervious to the gas and has a volume of 11 litres. Each round-bottomed flask is equipped with branch connections, one at the bottom for introducing the liquid DMDS, one at the top for collecting the air sample with a syringe.
Before introducing the gas, a partial vacuum (−500 mbar) is established in the round-bottomed flask with a vacuum pump. This makes it possible, on the one hand, to avoid the phenomenon of excess pressure due to the expansibility of DMDS in the round-bottomed flask and, on the other hand, to promote better homogeneity of the air-gas mixture in the first few seconds which follow injection. The DMDS (weighed accurately to the mg) is injected with a syringe, in liquid form, through the bottom branch connection, that is to say under the screen placed at half height of the round-bottomed flask and supporting the batches of fungi. After introducing the product, the internal pressure of the round-bottomed flask is re-established at atmospheric pressure. A magnetic stirrer operates during the entire duration of the treatment in order to properly homogenize the air-gas mixture.
At the end of the gassing, the cover for the round-bottomed flask is removed. One minute after this operation, the batches of fungi gassed are taken out and left in the open air for 15 minutes for desorption of the DMDS. They are then transferred into a Petri dish, the latter remaining open for 5 minutes to allow perfect desorption of the gas. […]

soil microorganisms = test: Effect on soil microorganisms (oxygen consumed); settings: 150 kg/ha (formulation A)
Procedure: The effect of DMDS, applied at 150 kg/ha in the form of formulation A, to soil microorganisms was evaluated according to the following standard methods: • “Recommended tests for assessing the side-effects of pesticides on the soil micro flora”, Technical Report Agricultural Research Council Weed Research Organization, 1980 (59). • “OECD Guideline for Testing of Chemicals—Soil Microorganisms: Carbon Mineralization Test”, Draft document, June 1996.
The effect of DMDS on soil microorganisms is measured by the reduction in the oxygen consumed by these microorganisms, expressed in mg O2 per kg of dry soil per h, 14, 28, 42, 57 days after the treatment (Table 14).

[2] = CT 1 050 g·h/m^3 (C 15.91 g/m^3, T 66 h)
[3] = CT 1 402 g·h/m^3 (C 21.24 g/m^3, T 66 h)
[4] = CT 1 450 g·h/m^3 (C 30.96 g/m^3, T 48 h)
[5] = CT 1 899 g·h/m^3 (C 28.77 g/m^3, T 66 h)
[6] = CT 1 981 g·h/m^3 (C 30.02 g/m^3, T 66 h)
[7] = CT 2 460 g·h/m^3 (C 51.25 g/m^3, T 48 h)
[8] = CT 2 471 g·h/m^3 (C 37.44 g/m^3, T 66 h)
[9] = CT 2 837 g·h/m^3 (C 42.98 g/m^3, T 66 h)
[10] = CT 2 974 g·h/m^3 (C 45.06 g/m^3, T 66 h)
[11] = CT 3 169 g·h/m^3 (C 48.02 g/m^3, T 66 h)
[12] = CT 3 467 g·h/m^3 (C 52.53 g/m^3, T 66 h)
[13] = CT 419 g·h/m^3 (C 17.46 g/m^3, T 24 h)
[14] = CT 625 g·h/m^3 (C 26.04 g/m^3, T 24 h)
[15] = CT 703 g·h/m^3 (C 29.29 g/m^3, T 24 h)
[16] = CT 907 g·h/m^3 (C 37.79 g/m^3, T 24 h)

## CSSC [DMDS, dimethyl disulphide]
A large number of fungi
  Activity on a large number of fungi: zero activity
[1]; 1 and 2 months after planting
  Visual observations on the field: sign of phytotoxicity: no sign of phytotoxicity
[1]; harvest 2 months and 20 days after planting, control 490 g
  Average weight of the lettuce at harvest: 505 g
Sclerotium rolfsii; [2]
  Viability V: 27.6%
  Vitality score Nm (over 19 days): 2.1
  Reduction in viability RV: 68.0
  Reduction in vitality score RNm: 71.1
Sclerotium rolfsii; [3]
  Viability V: 18.3%
  Vitality score Nm (over 19 days): 1.3
  Reduction in viability RV: 78.7
  Reduction in vitality score RNm: 81.8
Sclerotium rolfsii; [4]
  Viability V: 15.0%
  Vitality score Nm (over 19 days): 0.7
  Reduction in viability RV: 83.2
  Reduction in vitality score RNm: 91.8
Sclerotium rolfsii; [5]
  Viability V: 3.1%
  Vitality score Nm (over 19 days): 0.2
  Reduction in viability RV: 96.4
  Reduction in vitality score RNm: 96.8
Sclerotium rolfsii; [6]
  Viability V: 4.3%
  Vitality score Nm (over 19 days): 0.3
  Reduction in viability RV: 95.0
  Reduction in vitality score RNm: 95.1
Sclerotium rolfsii; [7]
  Viability V: 10.0%
  Vitality score Nm (over 19 days): 0.4
  Reduction in viability RV: 88.8
  Reduction in vitality score RNm: 94.7
Sclerotium rolfsii; [8]
  Viability V: 0%
  Vitality score Nm (over 19 days): 0
  Reduction in viability RV: 100
  Reduction in vitality score RNm: 100
Sclerotium rolfsii; [9]
  Viability V: 0%
  Vitality score Nm (over 19 days): 0
  Reduction in viability RV: 100
  Reduction in vitality score RNm: 100
Sclerotium rolfsii; [10]
  Viability V: 0%
  Vitality score Nm (over 19 days): 0
  Reduction in viability RV: 100
  Reduction in vitality score RNm: 100
Sclerotium rolfsii; [11]
  Viability V: 0%
  Vitality score Nm (over 19 days): 0
  Reduction in viability RV: 100
  Reduction in vitality score RNm: 100
Sclerotium rolfsii; [12]
  Viability V: 0%
  Vitality score Nm (over 19 days): 0
  Reduction in viability RV: 100
  Reduction in vitality score RNm: 100
Sclerotium rolfsii; [13]
  Viability V: 59.1%
  Vitality score Nm (over 19 days): 5.1
  Reduction in viability RV: 33.7
  Reduction in vitality score RNm: 40.9
Sclerotium rolfsii; [14]
  Viability V: 53.7%
  Vitality score Nm (over 19 days): 4.8
  Reduction in viability RV: 39.8
  Reduction in vitality score RNm: 44.3
Sclerotium rolfsii; [15]
  Viability V: 51.4%
  Vitality score Nm (over 19 days): 4.4
  Reduction in viability RV: 42.4
  Reduction in vitality score RNm: 48.7
Sclerotium rolfsii; [16]
  Viability V: 16.2%
  Vitality score Nm (over 19 days): 1.4
  Reduction in viability RV: 81.8
  Reduction in vitality score RNm: 84.2
Soil microorganisms; Day 0, untreated control 11.23
  Oxygen consumed by soil microorganisms: 9.70 mg O2 per kg of dry soil per h
Soil microorganisms; Day 14, untreated control 10.18
  Oxygen consumed by soil microorganisms: 8.74 mg O2 per kg of dry soil per h
Soil microorganisms; Day 28, untreated control 7.87
  Oxygen consumed by soil microorganisms: 6.62 mg O2 per kg of dry soil per h
Soil microorganisms; Day 42, untreated control 9.12
  Oxygen consumed by soil microorganisms: 8.93 mg O2 per kg of dry soil per h
Soil microorganisms; Day 57, untreated control 7.30
  Oxygen consumed by soil microorganisms: 4.90 mg O2 per kg of dry soil per h
